From US9862717B2 (Merck Patent GmbH, priority 2014, dated 2018)

Target: T1, CDK8/CycC (Homo sapiens, UniProt P49336)
T1 construct: purchased Invitrogen PV4402
Test: FRET based Lanthascreen binding competition assay for CDK8 inhibitory activity
Conditions: CDK8 co-expressed with CycC; class symbols; read-out: IC50
From the text: Biochemical Assay for CDK8 Inhibitory Activity FRET based Lanthascreen binding competition assay: A dye-labeled ATP competitive probe served as a FRET acceptor upon binding to CDK8 labeled with a strepavidin -Eu-chelate (via a biotinylated anti His antibody). The result was a fluorescence signal at 647 nm. In case this probe was competed by an inhibitor, such a signal cannot be generated any more. The CDK8 used for this assay was a protein co-expressed with CycC. The assay procedure for an assay in a 1536 well plate was performed according to the following: 2 μL CDK8/biotin-anti-His Ab/SA-Eu mix in Assay buffer were pipetted into the wells of a micro plate. 1 μL compound in 20 mM Hepes buffer/5% DMSO was added. The plate was shaken for 30 sec and incubated for 20 min at RT. 2 μL Alexa647-probe in assay buffer were added. The plate was shaken for 30 sec again and incubated for 60 min at RT in the dark. Then the plate was read out on a Perkin Elmer Envision (mode LANCE/TRF, excitation 340 nm emission 650 nm). […] The readouts were fitted to IC50 curves using Genedata Condoseo.

T1 sequence (P49336 whole entry): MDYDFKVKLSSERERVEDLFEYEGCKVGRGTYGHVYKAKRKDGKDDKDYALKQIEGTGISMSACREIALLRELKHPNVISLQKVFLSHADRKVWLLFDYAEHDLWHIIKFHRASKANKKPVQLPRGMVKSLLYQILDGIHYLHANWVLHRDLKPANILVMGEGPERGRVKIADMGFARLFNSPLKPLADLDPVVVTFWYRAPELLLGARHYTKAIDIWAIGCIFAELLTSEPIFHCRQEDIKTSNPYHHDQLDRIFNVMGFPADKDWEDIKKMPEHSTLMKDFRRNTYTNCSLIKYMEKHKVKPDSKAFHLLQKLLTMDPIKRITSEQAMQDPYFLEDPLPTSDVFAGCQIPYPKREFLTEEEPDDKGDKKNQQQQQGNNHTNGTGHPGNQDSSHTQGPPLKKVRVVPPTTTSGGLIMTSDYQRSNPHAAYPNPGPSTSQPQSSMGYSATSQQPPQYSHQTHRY
T1 sequence (P24863 whole entry partner): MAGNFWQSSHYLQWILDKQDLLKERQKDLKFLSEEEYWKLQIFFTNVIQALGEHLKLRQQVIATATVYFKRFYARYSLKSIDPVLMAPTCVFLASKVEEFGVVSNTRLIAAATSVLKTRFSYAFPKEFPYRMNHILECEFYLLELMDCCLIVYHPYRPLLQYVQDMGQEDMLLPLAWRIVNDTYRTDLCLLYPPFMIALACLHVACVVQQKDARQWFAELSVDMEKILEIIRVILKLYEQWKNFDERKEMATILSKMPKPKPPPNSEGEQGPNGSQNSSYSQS

Structure (SMILES)	IC50
Cc1n[nH]c2ncc(C(=O)N3CCC(O)(c4ccccc4)C3)cc12 (racemic) [compound 193, (3-Hydroxy-3-phenyl-pyrrolidin-1-yl)-(3-methyl-1H-pyrazolo[3,4-b]pyridin-5-yl)-methanone]	1 to 10 µM
Nc1n[nH]c2ccc(C(=O)N3CCCCC3Cc3ccccc3)cc12 (stereo in doubt) [compound 89, (3-Amino-1H-indazol-5-yl)-((R)-2-benzyl-piperidin-1-yl)-methanone]	0.1 to 1 µM
O=C(c1cnc2[nH]nc(C(F)(F)F)c2c1)N1CCC[C@@H]1c1ccc(Cl)cc1 (stereo in doubt) [compound 181, [(R)-2-(4-Chloro-phenyl)-pyrrolidin-1-yl]-(3-trifluoromethyl-1H-pyrazolo[3,4-b]pyridin-5-yl)-methanone]	0.1 to 1 µM
Cc1n[nH]c2ncc(C(=O)N3CCC(O)(c4ccccc4)C3)cc12 (stereo in doubt) [compound 199, ((R)-3-Hydroxy-3-phenyl-pyrrolidin-1-yl)-(3-methyl-1H-pyrazolo[3,4-b]pyridin-5-yl)-methanone]	1 to 10 µM
Cc1n[nH]c2ncc(C(=O)N3CCC[C@@H]3c3ccc(Br)cc3)cc12 [compound 3, [(R)-2-(4-Bromo-phenyl)-pyrrolidin-1-yl]-(3-methyl-1H-pyrazolo[3,4-b]pyridin-5-yl)-methanone]	0.1 to 1 µM
CCCc1n[nH]c2ccc(C(=O)N3CCC[C@@H]3c3ccc(Br)cc3)cc12 [compound 6, [(R)-2-(4-bromo-phenyl)-pyrrolidin-1-yl]-(3-propyl-1H-indazol-5-yl)-methanone]	0.1 to 1 µM
CCCc1n[nH]c2ccc(C(=O)N3CCC[C@@H]3c3ccc(Cl)cc3)cc12 [compound 12, [(R)-2-(4-Chloro-phenyl)-pyrrolidin-1-yl]-(3-propyl-1H-indazol-5-yl)-methanone]	0.1 to 1 µM
Cc1n[nH]c2ncc(C(=O)N3CCCCC3Cc3ccccc3)cc12 (centres unmarked) [compound 19, (2-Benzyl-piperidin-1-yl)-(3-methyl-1H-pyrazolo[3,4-b]pyridin-5-yl)-methanone]	0.1 to 1 µM
Cc1n[nH]c2ncc(C(=O)N3CCCC3c3cccc(Cl)c3)cc12 (centres unmarked) [compound 21, [2-(3-Chloro-phenyl)-pyrrolidin-1-yl]-(3-methyl-1H-pyrazolo[3,4-b]pyridin-5-yl)-methanone]	0.01 to 0.1 µM
Cc1n[nH]c2ncc(C(=O)N3CCC(c4ccccc4)C3)cc12 (centres unmarked) [compound 22, (3-Methyl-1H-pyrazolo[3,4-b]pyridin-5-yl)-(3-phenyl-pyrrolidin-1-yl)-methanone]	0.01 to 0.1 µM
Cc1n[nH]c2ncc(C(=O)N3CCCC3c3ccccc3Cl)cc12 (centres unmarked) [compound 23, [2-(2-Chloro-phenyl)-pyrrolidin-1-yl]-(3-methyl-1H-pyrazolo[3,4-b]pyridin-5-yl)-methanone]	0.01 to 0.1 µM
Cc1n[nH]c2ncc(C(=O)N3CCCC[C@H]3Cc3ccccc3)cc12 [compound 24, ((S)-2-Benzyl-piperidin-1-yl)-(3-methyl-1H-pyrazolo[3,4-b]pyridin-5-yl)-methanone]	0.1 to 1 µM
Cc1n[nH]c2ncc(C(=O)N3CCCC[C@H]3c3ccccc3)cc12 [compound 28, (3-Methyl-1H-pyrazolo[3,4-b]pyridin-5-yl)-((S)-2-phenyl-piperidin-1-yl)-methanone]	0.01 to 0.1 µM
Cc1n[nH]c2ncc(C(=O)N3CCCC3c3ccccn3)cc12 (centres unmarked) [compound 30, (3-Methyl-1H-pyrazolo[3,4-b]pyridin-5-yl)-(2-pyridin-2-yl-pyrrolidin-1-yl)-methanone]	0.1 to 1 µM

The next lines start with the values.

IC50	Structure (SMILES)
< 0.01 µM	CCCc1n[nH]c2ccc(C(=O)N3CCCC3c3ccc(Br)cc3)cc12 (racemic) [compound 4, [2-(4-Bromo-phenyl)-pyrrolidin-1-yl]-(3-propyl-1H-indazol-5-yl)-methanone]
0.01 to 0.1 µM	O=C(c1ccc2[nH]ncc2c1)N1CCCC1c1ccc(Br)cc1 (racemic) [compound 154]
0.01 to 0.1 µM	O=C(c1cnc2[nH]nc(C(F)(F)F)c2c1)N1CCCC1c1ccc(Cl)cc1 (racemic) [compound 177, [2-(4-Chloro-phenyl)-pyrrolidin-1-yl]-(3-trifluoromethyl-1H-pyrazolo[3,4-b]pyridin-5-yl)-methanone]
0.01 to 0.1 µM	CC(C)c1ccc(C2CCCN2C(=O)c2ccc3[nH]nc(N)c3c2)cc1 (racemic) [compound 191, (3-Amino-1H-indazol-5-yl)-[2-(4-isopropyl-phenyl)-pyrrolidin-1-yl]-methanone]
< 0.01 µM	Cc1n[nH]c2ncc(C(=O)N3CCCC3c3ccc(C(C)C)cc3)cc12 (racemic) [compound 192, [2-(4-Isopropyl-phenyl)-pyrrolidin-1-yl]-(3-methyl-1H-pyrazolo[3,4-b]pyridin-5-yl)-methanone]
0.01 to 0.1 µM	CC(=O)N[C@@H]1CN(C(=O)c2ccc3[nH]nc(N)c3c2)C[C@H]1c1ccc(Cl)cc1 (racemic) [compound 263, N-[(3S,4R)-1-(3-Amino-1H-indazole-5-carbonyl)-4-(4-chloro-phenyl)-pyrrolidin-3-yl]-acetamide (racemic)]
0.01 to 0.1 µM	CC(=O)N[C@@H]1CN(C(=O)c2cnc3[nH]nc(C)c3c2)C[C@H]1c1ccc(Cl)cc1 (racemic) [compound 264, N-[(3S,4R)-4-(4-Chloro-phenyl)-1-(3-methyl-1H-pyrazolo[3,4-b]pyridine-5-carbonyl)-pyrrolidin-3-yl]-acetamide (racemic)]
0.01 to 0.1 µM	Nc1n[nH]c2ccc(C(=O)N3CCCCC3Cc3ccccc3)cc12 (stereo in doubt) [compound 86, (3-Amino-1H-indazol-5-yl)-((S)-2-benzyl-piperidin-1-yl)-methanone]
0.01 to 0.1 µM	Cc1n[nH]c2ncc(C(=O)N3CC[C@H](C)C3c3ccc(C(F)(F)F)cc3)cc12 (stereo in doubt) [compound 171, (3-Methyl-1H-pyrazolo[3,4-b]pyridin-5-yl)-[(2S,3S)-3-methyl-2-(4-trifluoromethyl-phenyl)-pyrrolidin-1-yl]-methanone]
< 0.01 µM	O=C(c1cnc2[nH]nc(C(F)(F)F)c2c1)N1CCC[C@H]1c1ccc(Cl)cc1 (stereo in doubt) [compound 180, [(S)-2-(4-Chloro-phenyl)-pyrrolidin-1-yl]-(3-trifluoromethyl-1H-pyrazolo[3,4-b]pyridin-5-yl)-methanone]
< 0.01 µM	Cc1n[nH]c2ncc(C(=O)N3CCCC3c3ccc(Br)cc3)cc12 (centres unmarked) [compound 1, [2-(4-Bromo-phenyl)-pyrrolidin-1-yl]-(3-methyl-1H-pyrazolo[3,4-b]pyridin-5-yl)-methanone]
< 0.01 µM	Cc1n[nH]c2ncc(C(=O)N3CCC[C@H]3c3ccc(Br)cc3)cc12 [compound 2, [(S)-2-(4-Bromo-phenyl)-pyrrolidin-1-yl]-(3-methyl-1H-pyrazolo[3,4-b]pyridin-5-yl)-methanone]
< 0.01 µM	CCCc1n[nH]c2ccc(C(=O)N3CCC[C@H]3c3ccc(Br)cc3)cc12 [compound 5, [(S)-2-(4-Bromo-phenyl)-pyrrolidin-1-yl]-(3-propyl-1H-indazol-5-yl)-methanone]
< 0.01 µM	CCCc1n[nH]c2ccc(C(=O)N3CCCC3c3ccc(Cl)cc3)cc12 (centres unmarked) [compound 9, [2-(4-Chloro-phenyl)-pyrrolidin-1-yl]-(3-propyl-1H-indazol-5-yl)-methanone]
< 0.01 µM	CCCc1n[nH]c2ccc(C(=O)N3CCC[C@H]3c3ccc(Cl)cc3)cc12 [compound 11, [(S)-2-(4-Chloro-phenyl)-pyrrolidin-1-yl]-(3-propyl-1H-indazol-5-yl)-methanone]
0.01 to 0.1 µM	Cc1n[nH]c2ncc(C(=O)N3CCCCC3c3ccc(F)cc3)cc12 (centres unmarked) [compound 15, [2-(4-Fluoro-phenyl)-piperidin-1-yl]-(3-methyl-1H-pyrazolo[3,4-b]pyridin-5-yl)-methanone]
0.01 to 0.1 µM	Cc1n[nH]c2ncc(C(=O)N3CCCC[C@H]3c3ccc(F)cc3)cc12 [compound 17, [(S)-2-(4-Fluoro-phenyl)-piperidin-1-yl]-(3-methyl-1H-pyrazolo[3,4-b]pyridin-5-yl)-methanone]
0.01 to 0.1 µM	Cc1n[nH]c2ncc(C(=O)N3CCCCC3c3ccccc3)cc12 (centres unmarked) [compound 18, (3-Methyl-1H-pyrazolo[3,4-b]pyridin-5-yl)-(2-phenyl-piperidin-1-yl)-methanone]
< 0.01 µM	Cc1n[nH]c2ncc(C(=O)N3CCCC3c3ccccc3)cc12 (centres unmarked) [compound 20, (3-Methyl-1H-pyrazolo[3,4-b]pyridin-5-yl)-(2-phenyl-pyrrolidin-1-yl)-methanone]
< 0.01 µM	Cc1n[nH]c2ncc(C(=O)N3CCCC3c3ccc(F)cc3)cc12 (centres unmarked) [compound 26, [2-(4-Fluoro-phenyl)-pyrrolidin-1-yl]-(3-methyl-1H-pyrazolo[3,4-b]pyridin-5-yl)-methanone]

Same assay, conditions: IC50 [μM], CDK8 co-expressed with CycC; class symbols

Structure (SMILES)	IC50
Cc1n[nH]c2ncc(C(=O)N3CCCC3c3ccc(Cl)cc3)cc12 (racemic) [compound 10, [2-(4-Chloro-phenyl)-pyrrolidin-1-yl]-(3-methyl-1H-pyrazolo[3,4-b]pyridin-5-yl)-methanone]	< 0.01 µM
Nc1n[nH]c2ccc(C(=O)N3CCCC3c3ccc(Cl)cc3)cc12 (racemic) [compound 78, (3-Amino-1H-indazol-5-yl)-[2-(4-chloro-phenyl)-pyrrolidin-1-yl]-methanone]	< 0.01 µM
Cc1n[nH]c2ncc(C(=O)N3CCC[C@H]3c3ccc(Cl)cc3)cc12 [compound 13]	< 0.01 µM
Cc1n[nH]c2ncc(C(=O)N3CCC[C@@H]3c3ccc(Cl)cc3)cc12 [compound 14, [(R)-2-(4-Chloro-phenyl)-pyrrolidin-1-yl]-(3-methyl-1H-pyrazolo[3,4-b]pyridin-5-yl)-methanone]	0.1 to 1 µM
